# From publication PMC8448738, “Structural insight into the mechanism of energy transfer in cyanobacterial phycobilisomes” (Nature Communications, 2021)
# Columns and labels:
# Assay in all cases: cryo-EM structure of intact phycobilisome, […] Å
# Format in all cases: binding
# [1] = biological target: T1, ApcB (Synechococcus 7002) (Picosynechococcus sp. PCC 7002, UniProt O68970); details: covalent; native chromophore
# T1 construct: native, within intact phycobilisome purified from cells; mildly glutaraldehyde cross-linked
# T1 sequence (O68970 1-161): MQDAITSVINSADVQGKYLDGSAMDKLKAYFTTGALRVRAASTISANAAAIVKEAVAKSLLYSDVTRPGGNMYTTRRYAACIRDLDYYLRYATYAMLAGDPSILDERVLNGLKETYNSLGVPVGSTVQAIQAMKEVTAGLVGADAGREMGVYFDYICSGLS
# [2] = biological target: T2, ApcF (Synechococcus 7002) (Picosynechococcus sp. PCC 7002, UniProt O68967); details: covalent; native chromophore
# T2 construct: native, within intact phycobilisome purified from cells; mildly glutaraldehyde cross-linked; trimer A3
# [3] = biological target: T3, ApcE (LCM), Synechococcus 7002 (Picosynechococcus sp. PCC 7002, UniProt O68973); details: covalent; native chromophore; in alpha-LCM domain
# T3 construct: native, within intact phycobilisome; N-terminal alpha-LCM domain holds the bilin; three REP domains
# T3 sequence (O68973 1-886): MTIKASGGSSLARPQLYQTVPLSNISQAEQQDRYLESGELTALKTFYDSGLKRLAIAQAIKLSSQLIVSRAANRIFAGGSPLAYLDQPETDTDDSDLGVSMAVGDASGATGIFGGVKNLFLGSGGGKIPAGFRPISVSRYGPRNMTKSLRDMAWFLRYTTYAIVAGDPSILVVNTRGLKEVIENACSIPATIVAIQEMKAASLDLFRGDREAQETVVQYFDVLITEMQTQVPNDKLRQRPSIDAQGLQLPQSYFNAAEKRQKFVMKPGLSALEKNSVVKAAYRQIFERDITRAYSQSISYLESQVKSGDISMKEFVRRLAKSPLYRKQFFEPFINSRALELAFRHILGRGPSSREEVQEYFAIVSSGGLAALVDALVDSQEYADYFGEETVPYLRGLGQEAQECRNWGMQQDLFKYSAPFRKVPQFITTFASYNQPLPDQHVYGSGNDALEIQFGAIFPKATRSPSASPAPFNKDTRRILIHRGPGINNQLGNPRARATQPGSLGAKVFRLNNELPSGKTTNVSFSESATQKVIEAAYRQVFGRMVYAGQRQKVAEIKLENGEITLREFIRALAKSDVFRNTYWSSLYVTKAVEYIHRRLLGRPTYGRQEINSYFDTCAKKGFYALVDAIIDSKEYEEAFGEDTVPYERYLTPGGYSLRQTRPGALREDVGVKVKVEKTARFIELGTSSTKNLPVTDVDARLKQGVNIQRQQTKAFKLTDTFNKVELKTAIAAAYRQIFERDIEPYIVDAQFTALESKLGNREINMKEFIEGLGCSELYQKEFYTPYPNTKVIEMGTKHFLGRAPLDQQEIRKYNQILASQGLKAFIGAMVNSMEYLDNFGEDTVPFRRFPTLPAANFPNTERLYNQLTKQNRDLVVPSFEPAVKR
# [4] = biological target: T4, ApcA (Synechococcus 7002) (Picosynechococcus sp. PCC 7002, UniProt B1XQM2); details: covalent; native chromophore
# T4 construct: native, within intact phycobilisome purified from cells; mildly glutaraldehyde cross-linked
# T4 sequence (B1XQM2 2-161): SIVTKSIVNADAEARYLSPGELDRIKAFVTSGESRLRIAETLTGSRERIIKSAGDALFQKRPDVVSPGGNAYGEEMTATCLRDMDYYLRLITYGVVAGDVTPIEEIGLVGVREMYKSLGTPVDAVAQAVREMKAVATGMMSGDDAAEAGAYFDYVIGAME
# [5] = biological target: T5, ApcD (Synechococcus 7002) (Picosynechococcus sp. PCC 7002, UniProt O68966); details: covalent; native chromophore
# T5 construct: native, within intact phycobilisome purified from cells; mildly glutaraldehyde cross-linked; paired with ApcB in trimer A4
compound,measurement,setting,value
CC=C1C(=Cc2[nH]c(C=C3N=C(C=C4NC(=O)C(CC)=C4C)C(C)=C3CCC(=O)O)c(CCC(=O)O)c2C)NC(=O)C1C (centres unmarked) [phycocyanobilin],"cryo-EM structure of intact phycobilisome, 3.5 Å",[1],Y116 is located between αApcD and the bilin of ApcB^A4-II
same,"cryo-EM structure of intact phycobilisome, 3.5 Å",[2],"The bilins of ApcF (orange), ApcE (red), and ApcA (forest green) are shown"
same,"cryo-EM structure of intact phycobilisome, 3.5 Å",[3],"The bilins of ApcF (orange), ApcE (red), and ApcA (forest green) are shown"
same,"cryo-EM structure of intact phycobilisome, 3.5 Å",[4],"The bilins of ApcF (orange), ApcE (red), and ApcA (forest green) are shown"
same,"cryo-EM structure of intact phycobilisome, 3.5 Å",[5],Only the bilin of ApcD is shown with its ring-A through ring-D indicated.
